Laboratory results as given in PMC7118210 (Frontiers in Pharmacology, 2020).

Assay: Multiple-dose pharmacokinetics in rats
Assay type: in vivo, Sprague Dawley rats
Protocol: The optimal volume and activity in unit volume of enzyme solution [0.2 M acetic acid/water solution: 0.2 M ammonium acetate/water solution, 15:35 (v/v)] were determined through a pretest of the enzyme (rat plasma, 10 μl, 10 U μl^-1; dog plasma, 10 μl, 10 U μl^-1; human plasma, 20 μl, 20 U μl^-1; human urine, 10 μl, 10 U μl^-1). After enzyme incubation, 10 μl of IS solution was added to the plasma and urine samples (2 μg ml^-1 quercetin 3-β-D-glucoside for rat and dog plasma; 583 ng ml^-1 naringin-D4 and 160 ng ml^-1 naringenin-D4 for human plasma; and 9,710 ng ml^-1 naringin-D4 and 6,000 ng ml^-1 naringenin-D4 for human urine). To each fecal sample, 9-fold methanol-normal saline (2:1, v/v) was added, mixed (18,000 rpm, 15 min) by vortexing and centrifuged (10 min, 9,000 rpm, 4°C). Next, 10 μl IS solution (971 ng ml^-1 naringin-D4 and 600 ng ml^-1 naringenin-D4) was added to the supernatants of feces (200 μl) without enzyme incubation. […] The solid material was dissolved with acetonitrile-water (1:1, v/v) and injected into the ultra high-performance liquid chromatography coupled with triple quadrupole mass spectrometry (UHPLC/MS/MS) system as described below. The analysis of nonclinical and clinical samples was performed with a UHPLC/MS/MS system that consisted of a Shimadzu Nexera X2 ultra high-performance liquid chromatography (UHPLC) (Shimadzu Corp., Kyoto, Japan) coupled with an AB Sciex API4000 triple-quadrupole mass spectrometry (MS/MS) system (AB Sciex, Foster City, CA, USA) equipped with an electrospray ionization source and controlled by Analyst (v. 1.6.2) software. […] The injection volume was 10 μl with the flow rate of 0.3 ml min^-1 for plasma, and 0.4 ml min^-1 for urine and feces. The compounds were detected by multiple reaction monitoring in the negative ion electrospray mode. The electrospray source conditions were as follows: ion source gas1 30 psi, ion source gas2 60 psi, curtain gas 20 psi, collisionally activated dissociation (CAD) gas 8 psi, temperature 500°C, and ion spray voltage −4,500 V. Zero air was used for ion source gas1 and ion source gas2 and nitrogen for curtain gas and CAD gas. […] All pharmacokinetic and excretion parameters were expressed as mean ± standard deviation (SD). All mean and SD values were reported to three significant figures. The pharmacokinetic parameters were calculated using the Phoenix WinNonlin software (Version 6.4, Pharsight Corp., Cary, NC, USA) and compared using the Student's t-test (p < 0.05) in SPSS 18.0 (SPSS Inc., Chicago, IL, USA). […] For the multiple-dose studies, pharmacokinetic parameters included the mean plasma level at steady state, Tmax, t1/2, the percent fluctuation, and the accumulation index (Table 3). […] In addition, we compared the pharmacokinetic parameters obtained from males and females (Tables 4–6).

[1] = naringin 42 mg kg^-1 multiple dose, rat, female
[2] = naringin 42 mg kg^-1 multiple dose, rat, male
[3] = naringin 42 mg kg^-1 p.o. three times a day, multiple dose, rat

Structure (SMILES)	CavSS [1] [ng/mL]	Fluctuation [1] [%]	CavSS [2] [ng/mL]	Fluctuation [2]	CavSS [3] [ng/mL]	Fluctuation (naringin 42 mg kg^-1 p.o. three times a day, multiple dose, rat, (CmaxSS−CminSS)/CavSS×100%) [%]	accumulation in multiple-dose study (rats)	accumulation in multiple-dose study (rat, in vivo)
C[C@@H]1O[C@@H](O[C@H]2[C@H](Oc3cc(O)c4c(c3)O[C@H](c3ccc(O)cc3)CC4=O)O[C@H](CO)[C@@H](O)[C@@H]2O)[C@H](O)[C@H](O)[C@H]1O [naringin, Naringin]	17.4 ± 19.9	612 ± 233	6.03 ± 9.48	844 ± 1,030%	11.7 ± 15.9	728 ± 711	no significant accumulation	
O=C1C[C@@H](c2ccc(O)cc2)Oc2cc(O)cc(O)c21 [naringenin, Naringenin]	600 ± 517		178 ± 90.8		389 ± 415			no significant accumulation
